Assay results: the supplement of paper PMC4862054

Key:
Assay in all cases: normalised viability (% of control), CellTiter-Blue; higher = more viable cells (about 100 = DMSO control)
Details in all cases: incubation time: 72 h
BT-474 = tested on: BT-474
Description: (§1)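 DSRT, CellTiter-Blue viability, 72 h incubation. Signal is normalised to DMSO and benzethonium chloride controls. Value is the normalised response at dose 3.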

BT-549 = tested on: BT-549
Description: as §1

CAL-120 = tested on: CAL-120
Description: as §1

CAL-148 [1] = tested on: CAL-148
Description: as §1

CAL-51 [2] = tested on: CAL-51
Description: as §1

CAL-85-1 [3] = tested on: CAL-85-1
Description: as §1

DU-4475 [4] = tested on: DU-4475
Description: as §1

HCC1143 = tested on: HCC1143
Description: as §1

HCC1599 = tested on: HCC1599
Description: as §1

HCC1937 = tested on: HCC1937
Description: as §1

HDQ-P1 [5] = tested on: HDQ-P1
Description: as §1

Hs578T = tested on: Hs578T
Description: as §1

MDA-MB-231 = tested on: MDA-MB-231
Description: as §1

MDA-MB-436 = tested on: MDA-MB-436
Description: as §1

MDA-MB-453 [6] = tested on: MDA-MB-453
Description: as §1

MDA-MB-468 = tested on: MDA-MB-468
Description: as §1

MFM-223 = tested on: MFM-223
Description: as §1

SK-BR-3 = tested on: SK-BR-3
Description: as §1

CAL-148 [7] = tested on: CAL-148; remark: listed apart in the source
Description: (§2)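 DSRT, CellTiter-Blue viability, 72 h incubation. Signal is normalised to DMSO and benzethonium chloride controls. Value is the normalised response at dose 6.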

CAL-51 [8] = tested on: CAL-51; remark: listed apart in the source
Description: as §2

CAL-85-1 [9] = tested on: CAL-85-1; remark: listed apart in the source
Description: as §2

DU-4475 [10] = tested on: DU-4475; remark: listed apart in the source
Description: as §2

HDQ-P1 [11] = tested on: HDQ-P1; remark: listed apart in the source
Description: as §2

MDA-MB-453 [12] = tested on: MDA-MB-453; remark: listed apart in the source
Description: as §2

CAL-148 [13] = tested on: CAL-148; remark: listed apart in the source
Description: (§3)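 DSRT, CellTiter-Blue viability, 72 h incubation. Signal is normalised to DMSO and benzethonium chloride controls. Value is the normalised response at dose 9.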

CAL-51 [14] = tested on: CAL-51; remark: listed apart in the source
Description: as §3

CAL-85-1 [15] = tested on: CAL-85-1; remark: listed apart in the source
Description: as §3

DU-4475 [16] = tested on: DU-4475; remark: listed apart in the source
Description: as §3

HDQ-P1 [17] = tested on: HDQ-P1; remark: listed apart in the source
Description: as §3

MDA-MB-453 [18] = tested on: MDA-MB-453; remark: listed apart in the source
Description: as §3

With `O=C(O)C1(C(=O)O)CCC1.[NH2-].[NH2-].[Pt+2]` [Carboplatin] the normalised viability (BT-474; 100 nM) was 116%, the normalised viability (BT-549; 100 nM) was 101% and the normalised viability (CAL-120; 100 nM) was 88%. For the same compound, the normalised viability (CAL-148 [1]; 10 nM) was 92.4%, the normalised viability (CAL-51 [2]; 10 nM) was 100% and the normalised viability (CAL-85-1 [3]; 10 nM) was 87.3%. It also gave a normalised viability (DU-4475 [4]; 10 nM) of 98.9%, a normalised viability (HCC1143; 100 nM) of 86.4% and a normalised viability (HCC1599; 100 nM) of 92.8%. It also gave a normalised viability (HCC1937; 100 nM) of 94.5%, a normalised viability (HDQ-P1 [5]; 10 nM) of 96.6% and a normalised viability (Hs578T; 100 nM) of 96%. The normalised viability (MDA-MB-231; 100 nM) was 92.7%, the normalised viability (MDA-MB-436; 100 nM) was 93.3% and the normalised viability (MDA-MB-453 [6]; 10 nM) was 103%. For the same compound, the normalised viability (MDA-MB-468; 100 nM) was 98.8%, the normalised viability (MFM-223; 100 nM) was 88% and the normalised viability (SK-BR-3; 100 nM) was 91.1%. For the same compound, the normalised viability (CAL-148 [7]; 300 nM) was 106%, the normalised viability (CAL-51 [8]; 300 nM) was 106% and the normalised viability (CAL-85-1 [9]; 300 nM) was 86.1%. It also gave a normalised viability (DU-4475 [10]; 300 nM) of 87.6%, a normalised viability (HDQ-P1 [11]; 300 nM) of 87.6% and a normalised viability (MDA-MB-453 [12]; 300 nM) of 107%. It also gave a normalised viability (CAL-148 [13]; 10000 nM) of 44.6%, a normalised viability (CAL-51 [14]; 10000 nM) of 42.3% and a normalised viability (CAL-85-1 [15]; 10000 nM) of 56.2%. It also gave a normalised viability (DU-4475 [16]; 10000 nM) of 63.2%, a normalised viability (HDQ-P1 [17]; 10000 nM) of 122% and a normalised viability (MDA-MB-453 [18]; 10000 nM) of 25.9%.
`Oc1ncc(N(CCCl)CCCl)c(O)n1` [Uracil mustard] was tested, and the normalised viability (BT-474; 100 nM) was 106%, the normalised viability (BT-549; 100 nM) was 111% and the normalised viability (CAL-120; 100 nM) was 87.7%. For the same compound, the normalised viability (CAL-148 [1]; 10 nM) was 95.8%, the normalised viability (CAL-51 [2]; 10 nM) was 98.6% and the normalised viability (CAL-85-1 [3]; 10 nM) was 103%. It also gave a normalised viability (DU-4475 [4]; 10 nM) of 98.6%, a normalised viability (HCC1143; 100 nM) of 84.8% and a normalised viability (HCC1599; 100 nM) of 83.5%. For the same compound, the normalised viability (HCC1937; 100 nM) was 105%, the normalised viability (HDQ-P1 [5]; 10 nM) was 107% and the normalised viability (Hs578T; 100 nM) was 116%. The normalised viability (MDA-MB-231; 100 nM) was 100%, the normalised viability (MDA-MB-436; 100 nM) was 102% and the normalised viability (MDA-MB-453 [6]; 10 nM) was 107%. For the same compound, the normalised viability (MDA-MB-468; 100 nM) was 108%, the normalised viability (MFM-223; 100 nM) was 90.6% and the normalised viability (SK-BR-3; 100 nM) was 88.2%. It also gave a normalised viability (CAL-148 [7]; 300 nM) of 89.7%, a normalised viability (CAL-51 [8]; 300 nM) of 96.4% and a normalised viability (CAL-85-1 [9]; 300 nM) of 93.1%. For the same compound, the normalised viability (DU-4475 [10]; 300 nM) was 80.8%, the normalised viability (HDQ-P1 [11]; 300 nM) was 94.8% and the normalised viability (MDA-MB-453 [12]; 300 nM) was 104%. For the same compound, the normalised viability (CAL-148 [13]; 10000 nM) was 105%, the normalised viability (CAL-51 [14]; 10000 nM) was 91.6% and the normalised viability (CAL-85-1 [15]; 10000 nM) was 93.9%. It also gave a normalised viability (DU-4475 [16]; 10000 nM) of 94.9%, a normalised viability (HDQ-P1 [17]; 10000 nM) of 110% and a normalised viability (MDA-MB-453 [18]; 10000 nM) of 104%.
Work on `COc1cc2c(Oc3ccc4[nH]c(C)cc4c3F)ncnc2cc1OCCCN1CCCC1` [Cediranib] yielded a normalised viability (BT-474; 10 nM) of 98.4%, a normalised viability (BT-549; 10 nM) of 78.1% and a normalised viability (CAL-120; 10 nM) of 112%. The normalised viability (CAL-148 [1]; 1 nM) was 97.3%, the normalised viability (CAL-51 [2]; 1 nM) was 87.2% and the normalised viability (CAL-85-1 [3]; 1 nM) was 105%. For the same compound, the normalised viability (DU-4475 [4]; 1 nM) was 97.6%, the normalised viability (HCC1143; 10 nM) was 125% and the normalised viability (HCC1599; 10 nM) was 95.1%. For the same compound, the normalised viability (HCC1937; 10 nM) was 96.6%, the normalised viability (HDQ-P1 [5]; 1 nM) was 92.7% and the normalised viability (Hs578T; 10 nM) was 78.1%. The normalised viability (MDA-MB-231; 10 nM) was 82.1%, the normalised viability (MDA-MB-436; 10 nM) was 92.9% and the normalised viability (MDA-MB-453 [6]; 1 nM) was 78.9%. For the same compound, the normalised viability (MDA-MB-468; 10 nM) was 103%, the normalised viability (MFM-223; 10 nM) was 78.9% and the normalised viability (SK-BR-3; 10 nM) was 65.8%. For the same compound, the normalised viability (CAL-148 [7]; 30 nM) was 103%, the normalised viability (CAL-51 [8]; 30 nM) was 86% and the normalised viability (CAL-85-1 [9]; 30 nM) was 90.4%. For the same compound, the normalised viability (DU-4475 [10]; 30 nM) was 95%, the normalised viability (HDQ-P1 [11]; 30 nM) was 72.9% and the normalised viability (MDA-MB-453 [12]; 30 nM) was 75.9%. The normalised viability (CAL-148 [13]; 1000 nM) was 113%, the normalised viability (CAL-51 [14]; 1000 nM) was 74.1% and the normalised viability (CAL-85-1 [15]; 1000 nM) was 102%. The normalised viability (DU-4475 [16]; 1000 nM) was 83.4%, the normalised viability (HDQ-P1 [17]; 1000 nM) was 94.6% and the normalised viability (MDA-MB-453 [18]; 1000 nM) was 77.9%.
